Experimental data taken from patent US20100286280A1, “INHIBITORS OF EPPIN/SEMENOGELIN BINDING AS MALE CONTRACEPTIVES” (The University of North Carolina at Chapel Hill, priority 2007, published 2010).
“Also recorded” adds a separate entry of the source.

Tests used:
[1] = target: T1, recombinant Eppin binding to recombinant semenogelin (Homo sapiens, UniProt O95925); assay: Eppin-semenogelin in vitro binding assay (96-well ELISA format, absorption at 450 nm); conditions: Eppin preincubated with compound dilutions starting at 40 μg/ml; OD 450 nm (FIG. 4)
T1 construct: made in house; host or cells: E. coli strain M15 [pREP-4]
Experimental: In one embodiment, His-tagged recombinant semenogelin is bound to the individual wells of the plate, FLAG-tagged recombinant Eppin is bound to the semenogelin. The recombinant Eppin and recombinant semenogelin will form a complex. Compounds are then individually added to the wells of the plate and allowed to interfere with the Eppin-semenogelin complex formation. An anti-FLAG antibody (such as the M2 antibody sold by Sigma-Aldrich) is then added to the wells of the plate. The inhibition of the binding of Eppin to semenogelin is determined by looking for changes in Eppin-semenogelin binding when the anti-FLAG antibody (such as those used in commercially-available ELISA assays) is added. One can detect the binding of the anti-FLAG antibody to the FLAG tagged Eppin, for example, by looking at the absorption at 450 nm. In another embodiment, compounds are incubated with FLAG-tagged recombinant Eppin before being added to Sg. The anti-FLAG antibody is added after the Eppin-compound mixtures are added to the wells of the plate.
Recombinant Eppin and semenogelin are as described in Wang et al., Biology of Reproduction, 72:1064-1070 (2005). The recombinant Eppin used in the assays described herein has been tagged with a FLAG tag. The recombinant semenogelin is a His-tagged recombinant protein of the fragment of semenogelin starting with amino acid 164 and continuing to amino acid 283. […]

human spermatozoa = assay: Human sperm motility assay with Compound A4; assay type: cell-based
Description: Human spermatozoa were obtained from the UNC-Hospital clinic, washed and used for testing in a motility assay. Compound A4 reduced the total number of motile sperm in an ejaculate to <10% within one hour. The data are shown below in FIGS. 5 and 6, and in Tables 2 and 3.

T1 sequence (O95925 22-133): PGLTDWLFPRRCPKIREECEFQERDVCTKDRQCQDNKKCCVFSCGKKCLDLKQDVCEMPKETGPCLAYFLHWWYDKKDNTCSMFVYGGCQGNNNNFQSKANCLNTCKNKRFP

Compound: Cl.NC(=O)CNCC(N)=O [Compound A4]
- inhibition of Eppin-semenogelin binding [1]: effective at inhibiting this binding in a dose dependent manner; also recorded: inhibited Eppin-semenogelin binding in a dose dependent manner
- Velocity (human spermatozoa; Table 2, swim up + A4 + 1 hr): 15 μm/sec
- total distance (human spermatozoa; Table 2, swim up + A4 + 1 hr): 222 μm
- % Motility (human spermatozoa; Table 3, swim up + 1 hour): 7%
- Average velocity (human spermatozoa; Table 3, swim up + 1 hour): 14.9 μm/sec
- Distance (human spermatozoa; Table 3, swim up + 1 hour): 222 μm
- Straight distance (human spermatozoa; Table 3, swim up + 1 hour): 48.7 μm
- inhibition of sperm motility (in words) (human spermatozoa; human spermatozoa): inhibits their motility, significantly reducing their forward velocity and distance traveled; also recorded: effective at inhibiting sperm motility
- total number of motile sperm in an ejaculate (human spermatozoa; within one hour): < 10%
